Data taken from patent US12376590B2, “Compositions comprising pyridine carboxylate herbicides and azole carboxylate safeners” (Corteva Agriscience LLC, priority 2018, dated 2025).

Key:
Assay in all cases: Greenhouse postemergence herbicidal safening trial, visual injury after 20-22 d
winter wheat (TRZAW) = assay type: in vivo, Triticum aestivum
Description: (§1) Greenhouse Trial Methodology—Evaluation of Postemergence Herbicidal Safening in Crops
(§2) Seeds of the desired test plant species were planted in a 90:10% v/v (volume/volume) mixture of PRO-MIX® BX (Premier Tech Horticulture, Quakertown, PA, USA) and PROFILE® GREENS GRADE™ (Profile Products LLC, Buffalo Grove, IL, USA) planting mixture, which typically has a pH of 5.2 to 6.2 and an organic matter content of at least 50 percent, in plastic pots with a surface area of 103.2 square centimeters (cm^2). When required to ensure good germination and healthy plants, a fungicide treatment and/or other chemical or physical treatment was applied. The plants were grown for 7-36 days (d) in a greenhouse with an approximate 14-hour (h) photo-period which was maintained at about 23° C. during the day and 22° C. during the night. Nutrients and water were added on a regular basis and supplemental lighting was provided with overhead metal halide 1000-Watt lamps as necessary. The plants were employed for testing when they reached the second or third true leaf stage.
(§3) Emulsifiable concentrates of each of each pyridine carboxylate herbicide (Compound A or Compound B) were prepared at 100 grams acid equivalent per liter (g ae/L). An aliquot of each emulsifiable concentrate was placed in a 25 mL glass vial and diluted with an aqueous mixture of 1.25% (v/v) ACTIROB® B esterified rapeseed oil (Bayer Crop Science, Research Triangle Park, NC, USA) or MSO® Concentrate with LECI-TECH® methylated soybean oil (Loveland Products, Loveland, CO, USA) to obtain concentrated stock solutions at the highest application rate for each herbicide, based upon a 12 milliliter (mL) application volume at a rate of 187 liters per hectare (L/ha). The concentrated stock solutions were further diluted with an aqueous mixture of 1.25% v/v ACTIROB® B or MSO® Concentrate with LECI-TECH® to obtain stock solutions at reduced application rates for each herbicide. Spray solutions of the herbicide combinations (Compound A or Compound B plus safener) were prepared by adding weighed amounts or aliquots of the azole carboxylate safener to the stock solutions of Compound A or Compound B to form 12-mL spray solutions in two-way combinations.
(§4) The spray solutions were applied to the plant material with an overhead Mandel track sprayer equipped with 8002E nozzles calibrated to deliver 187 L/ha over an application area of 0.503 square meters (m^2) at a spray height of 18 inches (43 centimeters (cm)) above the average plant canopy. Control plants were sprayed in the same manner with the solvent blank. All herbicide (component a) application rates are given as “g ae/ha” and all safener (component b) application rates are given as “g ai/ha.”
(§5) The treated plants and control plants were placed in a greenhouse as described above and watered by sub-irrigation to prevent wash-off of the test compounds. After 20-22 d, the condition of the test plants as compared with that of the control plants was determined visually and scored on a scale of 0 to 100 percent where 0 corresponds to no injury and 100 corresponds to complete kill.

spring wheat (TRZAS) = assay type: in vivo, Triticum aestivum; details: applied alone
Description: as §1, §2, §3, §4, §5

Italian ryegrass (LOLMU) = assay type: in vivo, Lolium multiflorum
Description: as §1, §2, §3, §4, §5

[1] = system: ivyleaf morningglory (IPOHE); assay type: in vivo, Ipomoea hederacea
Description: as §1, §2, §3, §4, §5

barnyardgrass (ECHCG) = assay type: in vivo, Echinochloa crus-galli
Description: as §1, §2, §3, §4, §5

winter rape (BRSNW) = assay type: in vivo, Brassica napus
Description: as §1, §2, §3, §4, §5

large crabgrass (DIGSA) = assay type: in vivo, Digitaria sanguinalis
Description: as §1, §2, §3, §4, §5

Canada thistle (CIRAR) = assay type: in vivo, Cirsium arvense
Description: as §1, §2, §3, §4, §5

maize (ZEAMX) = assay type: in vivo, Zea mays
Description: as §1, §2, §3, §4, §5

[2] = system: herbicide-resistant kochia (KCHSC-R); assay type: in vivo, Kochia scoparia
Description: as §1, §2, §3, §4, §5

kochia (KCHSC) = assay type: in vivo, Kochia scoparia
Description: as §1, §2, §3, §4, §5

Canada horseweed (ERICA) = assay type: in vivo, Erigeron canadensis
Description: as §1, §2, §3, §4, §5

spring barley (HORVS) = assay type: in vivo, Hordeum vulgare; details: applied alone
Description: as §1, §2, §3, §4, §5

blackgrass (ALOMY) = assay type: in vivo, Alopecurus myosuroides
Description: as §1, §2, §3, §4, §5

[3] = system: Chinese sprangletop (LEFCH); assay type: in vivo, Leptochloa chinensis
Description: as §1, §2, §3, §4, §5

wild chamomile (MATCH) = assay type: in vivo, Matricaria chamomilla; details: applied alone
Description: as §1, §2, §3, §4, §5

wild pansy (VIOTR) = assay type: in vivo, Viola tricolor
Description: as §1, §2, §3, §4, §5

Measured: % visual injury Ob

CCOC(=O)C1=NN(c2ccc(Cl)cc2Cl)C(C)(C(=O)OCC)C1 (stereo not drawn) [Mefenpyr-diethyl, mefenpyr-diethyl]
0%: winter wheat (TRZAW); Mefenpyr-diethyl 20 g/ha | winter wheat (TRZAW); Mefenpyr-diethyl 40 g/ha | winter wheat (TRZAW); Mefenpyr-diethyl 80 g/ha | winter wheat (TRZAW); applied alone, 20 g/ha | winter wheat (TRZAW); applied alone, 40 g/ha | winter wheat (TRZAW); applied alone, 80 g/ha | winter wheat (TRZAW); applied alone, 120 g/ha | spring wheat (TRZAS); 10 g/ha | spring wheat (TRZAS); 20 g/ha | spring wheat (TRZAS); 40 g/ha | spring wheat (TRZAS); 80 g/ha | spring wheat (TRZAS); 120 g/ha | Italian ryegrass (LOLMU); Mefenpyr-diethyl 20 g/ha | Italian ryegrass (LOLMU); Mefenpyr-diethyl 40 g/ha | Italian ryegrass (LOLMU); Mefenpyr-diethyl 80 g/ha | [1]; Mefenpyr-diethyl 20 g/ha | [1]; Mefenpyr-diethyl 40 g/ha | [1]; Mefenpyr-diethyl 80 g/ha | barnyardgrass (ECHCG); Mefenpyr-diethyl 20 g/ha | barnyardgrass (ECHCG); Mefenpyr-diethyl 40 g/ha | barnyardgrass (ECHCG); Mefenpyr-diethyl 80 g/ha | winter rape (BRSNW); Mefenpyr-diethyl 20 g/ha | winter rape (BRSNW); Mefenpyr-diethyl 40 g/ha | winter rape (BRSNW); Mefenpyr-diethyl 80 g/ha | large crabgrass (DIGSA); Mefenpyr-diethyl 20 g/ha | large crabgrass (DIGSA); Mefenpyr-diethyl 40 g/ha | large crabgrass (DIGSA); Mefenpyr-diethyl 80 g/ha | Canada thistle (CIRAR); Mefenpyr-diethyl 20 g/ha | Canada thistle (CIRAR); Mefenpyr-diethyl 40 g/ha | Canada thistle (CIRAR); Mefenpyr-diethyl 80 g/ha | maize (ZEAMX); Mefenpyr-diethyl 20 g/ha | maize (ZEAMX); Mefenpyr-diethyl 40 g/ha | maize (ZEAMX); Mefenpyr-diethyl 80 g/ha | maize (ZEAMX); applied alone, 20 g/ha | maize (ZEAMX); applied alone, 40 g/ha | maize (ZEAMX); applied alone, 80 g/ha | maize (ZEAMX); applied alone, 120 g/ha | [2]; Mefenpyr-diethyl 20 g/ha | [2]; Mefenpyr-diethyl 40 g/ha | [2]; Mefenpyr-diethyl 80 g/ha | kochia (KCHSC); Mefenpyr-diethyl 20 g/ha | kochia (KCHSC); Mefenpyr-diethyl 40 g/ha | kochia (KCHSC); Mefenpyr-diethyl 80 g/ha | Canada horseweed (ERICA); Mefenpyr-diethyl 20 g/ha | Canada horseweed (ERICA); Mefenpyr-diethyl 40 g/ha | Canada horseweed (ERICA); Mefenpyr-diethyl 80 g/ha | spring barley (HORVS); 10 g/ha | spring barley (HORVS); 20 g/ha | spring barley (HORVS); 40 g/ha | spring barley (HORVS); 80 g/ha | spring barley (HORVS); 120 g/ha | blackgrass (ALOMY); Mefenpyr-diethyl 20 g/ha | blackgrass (ALOMY); Mefenpyr-diethyl 40 g/ha | blackgrass (ALOMY); Mefenpyr-diethyl 80 g/ha | [3]; Mefenpyr-diethyl 20 g/ha | [3]; Mefenpyr-diethyl 40 g/ha | [3]; Mefenpyr-diethyl 80 g/ha | wild chamomile (MATCH); 10 g/ha | wild chamomile (MATCH); 20 g/ha | wild chamomile (MATCH); 40 g/ha | wild pansy (VIOTR); Mefenpyr-diethyl 20 g/ha | wild pansy (VIOTR); Mefenpyr-diethyl 40 g/ha | wild pansy (VIOTR); Mefenpyr-diethyl 80 g/ha
